Assay results: publication PMC9401491, “The Novel Nucleoside Analogue ProTide NUC-7738 Overcomes Cancer Resistance Mechanisms In Vitro and in a First-In-Human Phase I Clinical Trial” (Clinical Cancer Research, 2021)
Like-named read-outs stand apart in the source and are kept apart here.

Experiments:
HAP1 cells [1] = assay: MTT cell viability, HAP1 cells; type: cell-based; settings: Homo sapiens
Procedure: (§1) Cells (10^4) were seeded into 96-well plates and then treated with NUC-7738 (lot 5132/E00393/119) or 3′-dA (cordycepin, catalog no. C3394, lot 067M4182, Sigma) for 48 hours. One and a half milligrams per milliliter MTT (catalog no. M6494, Invitrogen) in a 1:1 ratio was added to cell culture media. After a 2-hour incubation at 37°C, media was removed and 70 μl of isopropanol was added. Optical densities at 570 nm were measured using POLARstar Omega plate reader. Readouts were normalized and IC50 values were calculated using a nonlinear regression model in Graphpad prism (v8.3.0). Each biological replicate (at least 3) was performed in 4 technical replicates to calculate the average IC50 value. To measure apoptosis, the Guava NexinReagent (Luminex Corp.) was used following manufacturer's instructions. Fluorescence staining was measured with an automated 96-well Guava easyCyte Flow Cytometer (Luminex Corp.).

AGS = assay: MTT cell viability, AGS; type: cell-based; settings: Homo sapiens, 48 hours, mean (±SEM), read-out: IC50
Procedure: as §1

A498 = assay: MTT cell viability, A498; type: cell-based; settings: Homo sapiens; A498, 48 hours; mean (±SEM); read-out: IC50
Procedure: as §1

ACHN = assay: MTT cell viability, ACHN; type: cell-based; settings: Homo sapiens, 48 hours, mean (±SEM), read-out: IC50
Procedure: as §1

CAKI-1 = assay: MTT cell viability, CAKI-1; type: cell-based; settings: Homo sapiens; CAKI-1, 48 hours; mean (±SEM); read-out: IC50
Procedure: as §1

NCI-786 = assay: MTT cell viability, NCI-786; type: cell-based; settings: NCI-786, 48 hours; mean (±SEM); read-out: IC50
Procedure: as §1

UO-31 = assay: MTT cell viability, UO-31; type: cell-based; settings: Homo sapiens; UO-31, 48 hours; mean (±SEM); read-out: IC50
Procedure: as §1

501MEL = assay: MTT cell viability, 501MEL; type: cell-based; settings: 501MEL, 48 hours; mean (±SEM); read-out: IC50
Procedure: as §1

Tera-1 = assay: MTT cell viability, Tera-1; type: cell-based; settings: Tera-1, 48 hours; mean (±SEM); read-out: IC50
Procedure: as §1

SK-OV3 = assay: MTT cell viability, SK-OV3; type: cell-based; settings: Homo sapiens, SK-OV-3; SK-OV3, 48 hours; 2 biological replicates; read-out: IC50
Procedure: as §1

cancer cell lines = assay: IC50 across a wide set of cancer cell lines; type: cell-based; settings: mean across a wide set of cancer cell lines; read-out: mean IC50
Procedure: as §1

HAP1 cells [2] = assay: HAP1 viability with ADA, hENT1 or ADK inhibitors; type: cell-based, human; settings: HAP1, EHNA, NBTI, A134974
Procedure: as §1
To assess whether NUC-7738 was resistant to ADA and could bypass ADK and hENT1 (SLC29A1), cell viability was measured after treatment with their specific and corresponding protein inhibitors: erythro-9-(2-Hydroxy-3-nonyl) adenine hydrochloride (EHNA), A134974, and S-(4-nitrobenzyl)-6-thioinosine (NBTI), respectively ([16, 17, 34, 35]).

[3] = system: Gastric or cervical cancer cells; assay: Apoptosis by cleaved PARP Western blot; type: cell-based; settings: 50 and 100 μmol/L, 24 hours
Procedure: as §1
Cells were harvested and lyzed using RIPA lysis and extraction buffer (Thermo Scientific) following manufacturer's protocol. Twenty to 30 μg of total protein lysates was loaded on Mini-PROTEAN TGX precast gels (Bio-Rad). Separated proteins were transferred to a polyvinylidene difluoride (PVDF) membrane using Trans-Blot Turbo Transfer System (Bio-Rad) followed by incubation with primary and horseradish peroxidase (HRP)–conjugated secondary antibodies [anti-mouse, catalog no. […]

[4] = system: NUDT2 knockout HAP1 cells; assay: Sensitivity of NUDT2 CRISPR/Cas9 knockout HAP1 cells; type: cell-based, human; settings: HAP1 NUDT2 knockout vs wildtype
Procedure: Cells were transfected with stealth siRNA (catalog no. HSS104782, catalog no. HSS104784, catalog no. HSS179235; ThermoFisher) targeting HINT-1 using Lipofectamine RNAiMAX (Invitrogen) following the manufacturer's protocol. At 48 hours posttransfection, cells were treated and cell viability was measured 96 hours posttransfection as described above. Samples for Western blot analysis were harvested 48 hours posttransfection. For gene-depletion experiments, approximately 4 × 10^5 HAP1 cells were seeded per well in a 6-well plate and grown to approximately 50% confluency. After 24 hours, cells were transfected with lentiCRISPR v2 plasmid (GenScript) containing a guide RNA (gRNA) targeting gene of interest using Turbofectin (catalog no. TF81001, OriGene) according to manufacturer's instruction. The following sequences were used: HINT-1 CRISPR gRNA 2 ([…]) and NUDT2 CRISPR gRNA 2 ([…]). At 24 hours posttransfection, positively transfected cells were selected using […] puromycin for 72 hours. After selection, surviving colonies were expanded and used for downstream analysis. For clonal selection, clones were selected using limited dilution and expanded into a 6-well plate for Western blot screening.

[5] = parameters: method as in PMID 20302371; settings: cited from earlier work
[6] = NuTide:701 first-in-human phase I study; type: in vivo; settings: human, in vivo
Procedure: A Safety Study of NUC-7738 in Patients with Advanced Solid Tumours or Lymphoma, ClinicalTrials number: NCT03829254. Approved by Oxford C Ethics Committee ref 18/SC/0628.
This study is currently ongoing at three centers in the United Kingdom: Edinburgh, Newcastle, and Oxford. As of June 1, 2021, 28 patients with advanced cancers have been enrolled and received escalating doses of 14–900 mg/m^2 (intravenous infusion from 30–120 minutes) once weekly until dose-limiting toxicity or disease progression occurs. Intrapatient dose escalation ensures those starting at lower dose levels of NUC-7738 are continuously moved to higher doses once safety has been established. The most common cancers to be included are immunotherapy-resistant melanoma (n = 8), colorectal cancer (n = 3), and gastric and lung cancer (n = 2 each). […] A posttreatment biopsy was taken from a patient with melanoma and compared with their archived specimen collected prior to enrolling in the clinical trial. […] Transcriptional profiling of the specimens using RNA-seq identified more than 1,069 genes which were at least 2-fold differentially expressed after treatment with NUC-7738 (Fig. 6C and Supplementary Fig. S6A–C).

[7] = Beagle dog 4-week toxicology and toxicokinetics
[8] = all doses, both occasions and genders

Compound: Nc1ncnc2c1ncn2[C@@H]1O[C@H](CO)C[C@H]1O [3′-dA, 3′-deoxyadenosine, reference compound]
- IC50 (HAP1 cells [1]; HAP1, 48 hours, MTT, mean (±SEM) of 4 biological replicates, read-out: IC50): 49.9 µM
- IC90 (HAP1 cells [1]; HAP1, 48 hours, MTT, mean (±SEM) of 4 biological replicates, read-out: IC90): 151 µM
- IC50 (HAP1 cells [1]; HAP1, as stated in RNA-seq method, read-out: IC50 concentration used for RNA-seq): 46 µM
- IC90 (HAP1 cells [1]; HAP1, as stated in RNA-seq method, read-out: IC90 concentration used for RNA-seq): 375 µM
- IC50 (AGS): 460 µM
- IC50 (A498): 479 µM
- IC50 (ACHN): 393 µM
- IC50 (CAKI-1): 291 µM
- IC50 (NCI-786): 181 µM
- IC50 (UO-31): 385 µM
- IC50 (501MEL): 137 µM
- IC50 (Tera-1): 200 µM
- IC50 (SK-OV3): 360 µM
- IC50 (cancer cell lines): 138 µM
- potency upon inhibition of ADA, hENT1 or ADK (HAP1 cells [2]): dependent on ADA, hENT1, and ADK
- apoptotic cell death, cleaved PARP-1 [3]: induced apoptotic cell death
- resistance after NUDT2 deletion [4]: Specific resistance
- half-life in plasma [5]: 1.6 min

Compound: Nc1ncnc2c1ncn2[C@@H]1O[C@H](COP(=O)(O)OP(=O)(O)OP(=O)(O)O)C[C@H]1O [3′-dATP, 3′-dA-5′-triphosphate]
- intracellular half-life [6]: approximately 50 h

Compound: O=c1[nH]cnc2c1ncn2[C@@H]1O[C@H](CO)C[C@H]1O [3′-deoxyinosine]
- mean ratio metabolite/parent, AUC 0-t [7, 8]: 1.32
- mean ratio metabolite/parent, Cmax [7, 8]: 0.42
- Tmax ([7]; both, beagle, plasma, iv): 15 min
